Numbers after ± are expanded uncertainties.
Experiment: wn = mass fraction of the nth substance listed
Details: 400 kPa, Liquid, Concentric cylinders viscometry

CN(CCO)CCO [N-methyldiethanolamine] + O
viscosity [mPa·s]
Details | w1 = 0.3 | w1 = 0.4 | w1 = 0.5 | w1 = 0.6 | w1 = 0.7 | w1 = 0.8 | w1 = 0.9 | w1 = 0.95 | w1 = 1
298.15 K | 3.02 ± 0.48 | 5.21 ± 0.64 | 9.13 ± 1.2 | 16.91 ± 2.1 | 30.09 ± 3.7 | 53.42 ± 4.5 | 75.12 ± 3.3 | 76.07 ± 0.73 | 73.1 ± 0.58
303.15 K | 2.64 ± 0.41 | 4.41 ± 0.53 | 7.51 ± 0.92 | 13.4 ± 1.6 | 23.11 ± 2.7 | 40.03 ± 3.3 | 56.05 ± 2.7 | 57.55 ± 0.4 | 55.89 ± 0.39
308.15 K | 2.28 ± 0.35 | 3.71 ± 0.44 | 6.17 ± 0.73 | 10.73 ± 1.2 | 18.01 ± 2 | 30.42 ± 2.4 | 42.37 ± 2.1 | 44.18 ± 0.41 | 43.45 ± 0.35
313.15 K | 1.97 ± 0.31 | 3.15 ± 0.37 | 5.13 ± 0.59 | 8.68 ± 0.93 | 14.22 ± 1.5 | 23.47 ± 1.9 | 32.56 ± 1.6 | 34.3 ± 0.43 | 34.15 ± 0.3
318.15 K | 1.75 ± 0.28 | 2.73 ± 0.33 | 4.34 ± 0.49 | 7.15 ± 0.74 | 11.42 ± 1.1 | 18.44 ± 1.4 | 25.45 ± 1.3 | 27.04 ± 0.43 | 27.15 ± 0.27
323.15 K | 1.54 ± 0.26 | 2.36 ± 0.29 | 3.68 ± 0.41 | 5.92 ± 0.59 | 9.26 ± 0.9 | 14.67 ± 1.1 | 20.13 ± 1 | 21.55 ± 0.42 | 21.82 ± 0.24
328.15 K | 1.38 ± 0.24 | 2.07 ± 0.27 | 3.18 ± 0.35 | 4.99 ± 0.49 | 7.64 ± 0.71 | 11.84 ± 0.88 | 16.18 ± 0.82 | 17.38 ± 0.39 | 17.79 ± 0.23
333.15 K | 1.24 ± 0.23 | 1.83 ± 0.25 | 2.76 ± 0.31 | 4.23 ± 0.41 | 6.36 ± 0.58 | 9.67 ± 0.71 | 13.16 ± 0.67 | 14.14 ± 0.37 | 14.63 ± 0.22
338.15 K | 1.15 ± 0.22 | 1.65 ± 0.24 | 2.43 ± 0.28 | 3.66 ± 0.36 | 5.38 ± 0.48 | 8.02 ± 0.58 | 10.81 ± 0.55 | 11.64 ± 0.35 | 12.2 ± 0.21
343.15 K | 1.06 ± 0.22 | 1.49 ± 0.23 | 2.16 ± 0.26 | 3.18 ± 0.32 | 4.59 ± 0.41 | 6.71 ± 0.48 | 8.98 ± 0.46 | 9.66 ± 0.32 | 10.21 ± 0.21
348.15 K | 0.97 ± 0.21 | 1.35 ± 0.22 | 1.92 ± 0.25 | 2.77 ± 0.28 | 3.94 ± 0.35 | 5.66 ± 0.41 | 7.52 ± 0.4 | 8.09 ± 0.3 | 8.6 ± 0.21
353.15 K | 0.89 ± 0.21 | 1.22 ± 0.22 | 1.72 ± 0.23 | 2.43 ± 0.26 | 3.41 ± 0.31 | 4.81 ± 0.36 | 6.35 ± 0.35 | 6.82 ± 0.28 | 7.31 ± 0.21
358.15 K | 0.84 ± 0.21 | 1.13 ± 0.21 | 1.58 ± 0.23 | 2.18 ± 0.25 | 3 ± 0.28 | 4.16 ± 0.32 | 5.44 ± 0.31 | 5.83 ± 0.26 | 6.29 ± 0.2
363.15 K | 0.81 ± 0.21 | 1.05 ± 0.21 | 1.45 ± 0.22 | 1.97 ± 0.23 | 2.65 ± 0.26 | 3.63 ± 0.29 | 4.69 ± 0.28 | 5.01 ± 0.25 | 5.43 ± 0.2
368.15 K | 0.79 ± 0.2 | 0.97 ± 0.21 | 1.33 ± 0.22 | 1.77 ± 0.23 | 2.37 ± 0.25 | 3.18 ± 0.26 | 4.09 ± 0.26 | 4.33 ± 0.24 | 4.72 ± 0.2
373.15 K | 0.76 ± 0.2 | 0.91 ± 0.21 | 1.23 ± 0.21 | 1.61 ± 0.22 | 2.12 ± 0.23 | 2.82 ± 0.25 | 3.58 ± 0.24 | 3.77 ± 0.23 | 4.12 ± 0.2

From the NIST ThermoML archive (doi:10.1021/acs.jced.9b00021)
